Legend:
PfDPMS [1] = molecular target: T1, PfDPMS (Pyrococcus furiosus, UniProt Q8U4M3); assay: X-ray crystallography; assay type: binding; settings: formed in reaction mixture at 60 °C; GDP bound, metal departed
T1 construct: gene PF0058; E. coli C41(DE3) membranes, DDM or LDAO solubilised, mainly monomer
T1 sequence (Q8U4M3 1-352): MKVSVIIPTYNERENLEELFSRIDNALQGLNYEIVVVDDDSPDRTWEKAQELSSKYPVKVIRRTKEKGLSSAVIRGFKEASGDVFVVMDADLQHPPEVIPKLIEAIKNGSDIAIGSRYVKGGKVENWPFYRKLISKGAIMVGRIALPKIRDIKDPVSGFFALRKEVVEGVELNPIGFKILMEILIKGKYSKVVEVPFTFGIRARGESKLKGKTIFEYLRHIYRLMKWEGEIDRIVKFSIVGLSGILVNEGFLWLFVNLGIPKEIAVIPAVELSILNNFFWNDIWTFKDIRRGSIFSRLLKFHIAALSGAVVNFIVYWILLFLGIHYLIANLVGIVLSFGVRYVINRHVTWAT

PfDPMS [2] = molecular target: T1, PfDPMS; assay: phosphate-coupled glycosyltransferase assay (malachite green); assay type: biochemical; settings: 0.23 mM donor, Dol-P acceptor, 75 °C, pH 7.5
PfDPMS [3] = molecular target: T1, PfDPMS; assay: thermal shift, heat precipitation with SDS-PAGE densitometry; assay type: binding; settings: detergent-solubilised; compared with no Dol-P

CC(C)=CCC/C(C)=C/CC/C(C)=C/CC/C(C)=C\CC/C(C)=C\CC/C(C)=C\CC/C(C)=C\CC/C(C)=C\CC/C(C)=C\CC/C(C)=C\CC[C@H](C)CCOP(=O)(O)O[C@@H]1O[C@H](CO)[C@@H](O)[C@H](O)[C@@H]1O [Dol55-P-Man]
X-ray crystallography (PfDPMS [1]): 5MM1 (PfDPMS•GDP•Dol55-P-Man)

Nc1nc2c(ncn2[C@@H]2O[C@H](COP(=O)(O)OP(=O)(O)O[C@H]3O[C@H](CO)[C@@H](O)[C@H](O)[C@H]3O)[C@@H](O)[C@H]2O)c(=O)[nH]1 [GDP-Glc]
phosphate-coupled glycosyltransferase assay (malachite green) (PfDPMS [2]): four-fold higher product formation with GDP-Man compared with GDP-Glc

CC(C)=CCC/C(C)=C/CC/C(C)=C/CC/C(C)=C\CC/C(C)=C\CC/C(C)=C\CC/C(C)=C\CC/C(C)=C\CC/C(C)=C\CC/C(C)=C\CC[C@H](C)CCOP(=O)(O)O [Dol55-P]
ΔTm (PfDPMS [3]): 13.3 °C

Reference: paper PMC5526996, “Structural basis for dolichylphosphate mannose biosynthesis” (Nature Communications, 2017)
